Assay results reported in patent publication US5036054A, “Renin inhibitors containing alpha-heteroatom amino acids” (Warner-Lambert Company, priority 1988, dated 1991).

target: T1, renin (Homo sapiens, UniProt P00797); assay: in vitro renin inhibitory activity, radioimmunoassay for angiotensin I; type: biochemical; conditions: 10^-6 molar test compound; renin incubated 2 hours at 37° with substrate angiotensinogen; angiotensin I by radioimmunoassay
T1 sequence (P00797 67-406): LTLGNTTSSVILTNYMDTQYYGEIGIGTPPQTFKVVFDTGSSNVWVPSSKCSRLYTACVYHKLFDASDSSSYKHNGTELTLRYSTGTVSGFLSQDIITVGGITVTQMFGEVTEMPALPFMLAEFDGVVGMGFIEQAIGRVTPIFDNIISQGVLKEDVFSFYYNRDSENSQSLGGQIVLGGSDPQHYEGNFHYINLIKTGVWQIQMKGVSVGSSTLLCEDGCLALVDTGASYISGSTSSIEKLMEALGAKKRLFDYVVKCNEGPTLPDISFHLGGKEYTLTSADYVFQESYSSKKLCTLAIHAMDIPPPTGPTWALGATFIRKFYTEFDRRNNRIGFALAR
Method: The effectiveness of the aforementioned compounds is determined by a test for in vitro renin inhibitory activity. This activity is determined by a standard radioimmunoassay for angiotensin I. In this assay the enzyme, renin, incubated for 2 hours at 37° in the presense of a substrate, angiotensinogen, generates the product, angiotensin I. Test compounds are added to the incubation mixture. Relative activity is reported as the percent inhibition at 10^-6 molar concentration.

Activity % Inhibition @ 10^-6 M [%] | Compound
87 | CCC(C)CNC(=O)CC(O)C(CC(C)C)NC(=O)C(NC(=O)C(Cc1cccc2ccccc12)Cc1cccc2ccccc12)SC(C)C (single isomer, unassigned) [DNMANHCH(SCH(CH3)2)COSTANHCH2 CH(CH3)CH2 CH3 (fast isomer), DNMA-NHCH(SCH(CH3)2)CO-STA-NHCH2 CH(CH3)CH2 CH3]
26 | CCC(C)CNC(=O)CC(O)C(CC(C)C)NC(=O)C(NC(=O)C(Cc1cccc2ccccc12)Cc1cccc2ccccc12)SC(C)C (single isomer, unassigned) [DNMANHCH(SCH(CH3)2)COSTANHCH2 CH(CH3)CH2 CH3 (slow isomer), DNMA-NHCH(SCH(CH3)2)CO-STA-NHCH2 CH(CH3)CH2 CH3]
86 | CCC(C)CNC(=O)CC(O)C(CC(C)C)NC(=O)C(NC(=O)C(Cc1cccc2ccccc12)Cc1cccc2ccccc12)SC (centres unmarked) [DNMANHCH(SCH3)COSTANHCH2 CH(CH3)CH2 CH3, DNMA-NHCH(SCH3)CO-STA-NHCH2 CH(CH3)CH2 CH3]
35 | CCC(C)CNC(=O)CC(O)C(CC(C)C)NC(=O)C(NC(=O)C(Cc1cccc2ccccc12)Cc1cccc2ccccc12)[S+](C)[O-] (centres unmarked) [DNMANHCH(SOCH3)COSTANHCH2 CH(CH3)CH2 CH3, DNMA-NHCH(SOCH3)CO-STA-NHCH2 CH(CH3)CH2 CH3]
40 | CCC(C)CNC(=O)CC(O)C(CC(C)C)NC(=O)C(NC(=O)C(Cc1cccc2ccccc12)Cc1cccc2ccccc12)Sc1ccccc1 (centres unmarked) [DNMANHCH(SPh)COSTANHCH2 CH(CH3)CH2 CH3, DNMA-NHCH(SPh)CO-STA-NHCH2 CH(CH3) CH2 CH3]

The next lines start with the compound.

Compound | Activity % Inhibition @ 10^-6 M [%]
CCC(C)CNC(=O)CC(O)C(CC(C)C)NC(=O)C(NC(=O)C(Cc1cccc2ccccc12)Cc1cccc2ccccc12)N(C)C (single isomer, unassigned) [DNMANHCH(N(CH3)2)COSTANHCH2 CH(CH3)CH2 CH3 (slow isomer), DNMA-NHCH(N(CH3)2 CO-STA-NHCH2 CH(CH3)CH2 CH3] | 55
CCC(C)CNC(=O)CC(O)C(CC(C)C)NC(=O)C(N)NC(=O)C(Cc1cccc2ccccc12)Cc1cccc2ccccc12 (single isomer, unassigned) [DNMANHCH(NH2)COSTANHCH2 CH(CH3)CH2 CH3 (fast isomer), DNMA-NHCH(NH2)CO-STA-NHCH2 CH(CH3)CH2 CH3] | 9
CCOC(NC(=O)C(Cc1cccc2ccccc12)Cc1cccc2ccccc12)C(=O)N[C@@H](CC(C)C)[C@@H](O)CC(=O)NCC(C)CC (single isomer, unassigned) [DNMANHCH(OC2 H5)COSTANHCH2 CH(CH3)CH2 CH3 (fast isomer), DNMA-NHCH(OC2 H5)CO-STA-NHCH2 CH(CH3)CH2 CH3] | 100
CCOC(=O)NC(NC(=O)C(Cc1cccc2ccccc12)Cc1cccc2ccccc12)C(=O)NC(CC(C)C)C(O)CC(=O)NCC(C)CC (centres unmarked) [DNMA-NHCH(NHCO2 Et)CO-STA-NHCH2 CH(CH3)CH2 CH3] | 40
CCC(C)CNC(=O)CC(O)C(CC(C)C)NC(=O)C(NC(C)=O)NC(=O)C(Cc1cccc2ccccc12)Cc1cccc2ccccc12 (centres unmarked) [DNMA-NHCH(NHCOCH3)CO-STA-NHCH2 CH(CH3)CH2 CH3] | 39
CCC(C)CNC(=O)CC(O)C(CC(C)C)NC(=O)C(NC(=O)C(Cc1cccc2ccccc12)Cc1cccc2ccccc12)Nc1ccccc1 (centres unmarked) [DNMANHCH(NHPh)COSTANHCH2 CH(CH3)CH2 CH3, DNMA-NHCH(NHPh)CO-STA-NHCH2 CH(CH3)CH2 CH3] | 56
CCC(C)CNC(=O)C[C@H](O)[C@H](CC(C)C)NC(=O)C(NC(=O)C(Cc1cccc2ccccc12)Cc1cccc2ccccc12)OC (some centres unmarked) [DNMANHCH(OCH3)COSTANHCH2 CH(CH3)CH2 CH3, DNMA-NHCH(OCH3)CO-STA-NHCH2 CH(CH3)CH2 CH3] | 90
DNMA-NHCH(NH2)CO-STA-NHCH2 CH(CH3)CH2 CH3 [DNMANHCH(NH2)COSTANHCH2 CH(CH3)CH2 CH3 (slow isomer)] | 54
DNMA-NHCH(NH(CH2)3 NHCSNHCH3)CO-STA-NHCH2 CH(CH3)CH2 CH3 | 36
DNMA-NHCH(NHC2 H5)CO-STA-NHCH2 CH(CH3) CH2 CH3 [DNMANHCH(NHC2 H5)COSTANHCH2 CH(CH3)CH2 CH3 (slow isomer)] | 71
DNMA-NHCH(NHCH(CH3)2)CO-STA-NHCH2 CH(CH3)CH2 CH3 [DNMA-NHCH(NHCH(CH3)2)COSTANHCH2 CH(CH3)CH2 CH3 (slow isomer)] | 60
DNMA-NHCH(OC2 H5)CO-STA-NHCH2 CH(CH3)CH2 CH3 [DNMANHCH(OC2 H5)COSTANHCH2 CH(CH3)CH2 CH3 (slow isomer)] | 15
